Data as given in patent publication US11920125B2, “Methods and agricultural compositions for preventing or controlling plant diseases” (Tenfold Technologies, LLC, priority 2017, dated 2024).

What was measured:
R. solani = experiment: Pot assay, microbial drench treatments on Ozark soybean seedlings in pots infested with R. solani; assay type: in vivo; conditions: chemical control at 0.06 g/lb of soybean seeds
Procedure: In pot assays, WB or its dilutions were applied as a seed coating or as a a simulated in-furrow application in pots containing soil inoculated with the pathogen. Measurements of the percent of emergence, plant growth stage, and disease rating were used to assess biocontrol efficacy. Whole broth (WB) or WB dilutions were applied either as a simulated in-furrow treatment or a seed treatment applied to soybean seed. For simulated in-furrow application, 1 ml of biocontrol treatment or negative and positive controls was pipetted over the seed placed in 0.5 cm deep depressions made in peat-lite mix potting medium inoculated with the pathogen and prior to covering with the potting medium. Seed treatments were applied by coating soybean seed with the biocontrol and control treatments prior to planting into an inoculated potting medium. The negative control was reverse osmosis-purified (RO) water applied to seed in inoculated pots. The positive controls were Satori® (azoxystrobin) and Subtilex® (Bacillus subtilis strain MBI 600) applied at the labelled rates. In addition, a mock-inoculated treatment without pathogen inoculation was included in each test. Inoculation was done by thoroughly mixing 1 L of a slurry, made by blending two fully Rhizoctonia solani-colonized potato dextrose cultures in 200 ml RO water, with 4 L peat-lite mix (e.g., Sunshine LC1 potting mix) using a cement mixer. Experimental units were five seeds per pot and the treatments were arranged in a completely random design with four replicates. The tests were conducted on light carts illuminated with LED lamps (16 hour day/8 hour night) for 7-10 days at 26-28° C. The pots were irrigated as needed with RO water. Measurements of the percent emergence, plant growth stage (Munger, et al., 2008), and disease severity rating (0, no disease, to 5, dead plant) were collected from each plant at the end of each test, and the means of the experimental units were analyzed using JMP version 11 (SAS, Cary, NC).
In a separate pot assay, treatments were applied directly as a drench.

Rhizoctonia = Rhizoctonia control field trial, soybean seed treatment, Fisher, Indiana; conditions: isolates (GB6-M) 20 μl WB/Seed; Fludioxonil 0.02 mg/Seed
Procedure: For all treatments, the target concentration is 20 μl water/seed, which corresponds to 60 ml/460 g seeds. Sixty (60) ml liquid was added to every 460 g soybean seeds for a total of six times. Each time, 10 ml of liquid was added to the 460 g seeds and mixed for 15 seconds. Coated seeds were dried for 5-10 minutes under ventilation between the additions. Final coated seeds were dried overnight in a biocontainment hood.

Pythium irregulare = experiment: Pot assay, bacterial isolates with or without fungicide Satori for control of Pythium irregulare on soybean; assay type: in vivo
Procedure: In order to test the performance of bacterial isolates, with or without the presence of the fungicide Satori® (active ingredient is azoxystrobin), samples were applied as simulated in-furrow by pipetting in 1 ml over each seed after the seeds were placed in a 1 cm deep depression. The combination was prepared by combining each bacterial whole broth (MS1479, MS2379, MS2414, or MS2820) (which was grown in GB6-M8) with an equal volume (1:1) of Satori®. The agar slurry inoculation method was used after blending two agar cultures of P. irregulare in 200 ml RO water and then mixed with 4 L of peat-lite mix in a cement mixer. Five soybean seeds (genotype WS2620) were sown in each pot with 1 ml treatment over each seed (in-furrow simulation). Then the pots were incubated at 16° C. for 1 week and then 23° C. for another week before evaluation. The disease severity scale: 1=80-100%, 2=60-79%, 3=40-59%, 4=20-39%, 5=1-19%, and 6=0% damaged roots. (Table 16).

Row | SMILES | Disease Rating (R. solani; 0 = no disease to 5 = plant dead, 7 days) | # Emerged Plants (R. solani; 7 days after sowing, of four seeds per pot) | Plant Growth Stage (R. solani; scale 1-4, 7 days) | Stand (No of plants per acre) at 11 DAP (Rhizoctonia) | Stand (No of plants per acre) at 16 DAP (Rhizoctonia) | Stand (No of plants per acre) at 49 DAP (Rhizoctonia) | Total # Diseased per plot (187.5 ft^2 per plot area) (Rhizoctonia) | Vigor Rating (1-5: 1 = worst, 5 = best) (Rhizoctonia) | Plant development (Pythium irregulare; five soybean seeds per pot, 1 ml treatment over each seed) | Plant emergence (Pythium irregulare; five soybean seeds per pot, 1 ml treatment over each seed, 16° C. 1 week then 23° C. 1 week) | Disease severity (Pythium irregulare; scale 1=80-100%, 2=60-79%, 3=40-59%, 4=20-39%, 5=1-19%, 6=0% damaged roots (higher = healthier))
1 | N#Cc1c[nH]cc1-c1cccc2c1OC(F)(F)O2 [Fludioxonil] | 3.0^F | 2.0^B | 2.2^B | 2614 plants per acre | 20038 plants per acre | 16939 plants per acre | 7.3 | 1.8 |  |  | 
2 | COCC(=O)N(c1c(C)cccc1C)C(C)C(=O)OC (centres unmarked) [Metalaxyl] |  |  |  |  |  |  |  |  | 12.55 | 5 | 4.35
